Where “and” joins values, the source holds several entries; their conditions need not be identical. Equal values may be shown once.
Assays:
[1] = target: T1, LepI (Aspergillus flavus, UniProt B8NJH3); assay: HPLC assay of retro-Claisen rearrangement of compound […]; format: biochemical; details: read-out: % inhibition at 0.5 mM
T1 construct: codon-optimized gene in pET-15b (NdeI/XhoI), N-terminal His tag, E. coli BL21(DE3); homodimer; SAM and MTA partly copurify

[2] = target: T1, LepI; assay: HPLC assay of retro-Claisen rearrangement of compound […], rescue of SAH/MTA inhibition; format: biochemical; details: 1 mM SI with 1 mM SAH or 1 mM MTA, 300 nM LepI, pH 8.0, 30 °C; SAM analogue, activator
[3] = target: the molecule itself; assay: crystal structure; LepI crystals grown in 0.15 M bis-Tris pH 7.0, 40% PEG 400; structures with SAM/MTA (1.7 Å), SAH (2.7 Å) and SAM/compound 1 (2.2 Å); two molecules in the asymmetric unit
[4] = target: the molecule itself; assay: SEC; analytical gel filtration, Superdex 200 Increase 10/30 GL, protein at 1 mg/mL, 20 mM Na2HPO4, 50 mM NaCl, pH 8.0; sizes by standard protein markers

Molecule: CSC[C@H]1O[C@@H](n2cnc3c(N)ncnc32)[C@H](O)[C@@H]1O [MTA]
- inhibition at 500 µM [1]: 30%

Molecule: Nc1ncnc2c1ncn2[C@@H]1O[C@H](C[C@@H](N)CC[C@H](N)C(=O)O)[C@@H](O)[C@H]1O [Sinefungin]
- HPLC assay of retro-Claisen rearrangement of compound 1, rescue of SAH/MTA inhib [2]: both SAM and SI completely rescued LepI activity for retro-Claisen rearrangement

B1: leporin biosynthesis enzyme LepI (enzyme, Aspergillus flavus)
chain: METVAAIKTLIQQLAQSTDQFGRAEINDALRELQYSLETPFDTVMRMSLDTCQVAVARIGSDLGLFKHLSQCASPQSAEELADHLGCGRELMSRLLRYMASVRMVQQTDDIKYISSNITQTLAVPGLEAGMRHAFENLWPVLMALPDFLAERKYPDIVDAKDTAFQKAFNTDQDCFHWLATQPTRIANFKVLLTDERTPNFLSTFPLEKELGSWSAEPEKALFVDIGGGMGHACIRLREKYPNQPGRVILQDLPPVLQAAQATLPLSGIESMPHNFHTPQPVQGAKFYFLRLILRDFPDHQALEILQNIVPAMDAESRIVIDDGVPPEKGARWAETGTDICIMSALGSKERTQRQWEELAAKAGLQLQALYQYTWPVVNAAMVFSLQ
notes: LepI, SAM-dependent enzyme of the leporin biosynthesis gene cluster of Aspergillus flavus; codon-optimized gene in pET-15b between NdeI and XhoI; Homodimer in the asymmetric unit of the crystal; Endogenous SAM and MTA co-purified with the protein; A selenomethionine form was used for phasing; also called wild-type (WT) LepI; native-LepI; source: E. coli BL21 (DE3), purified (Ni resin, …)
- binding result [3]: binds

B2: LepI-Δ15 (domain or fragment, Aspergillus flavus, UniProt B8NJH3 16-387, looked up)
chain: QSTDQFGRAEINDALRELQYSLETPFDTVMRMSLDTCQVAVARIGSDLGLFKHLSQCASPQSAEELADHLGCGRELMSRLLRYMASVRMVQQTDDIKYISSNITQTLAVPGLEAGMRHAFENLWPVLMALPDFLAERKYPDIVDAKDTAFQKAFNTDQDCFHWLATQPTRIANFKVLLTDERTPNFLSTFPLEKELGSWSAEPEKALFVDIGGGMGHACIRLREKYPNQPGRVILQDLPPVLQAAQATLPLSGIESMPHNFHTPQPVQGAKFYFLRLILRDFPDHQALEILQNIVPAMDAESRIVIDDGVPPEKGARWAETGTDICIMSALGSKERTQRQWEELAAKAGLQLQALYQYTWPVVNAAMVFSLQ
notes: LepI of Aspergillus flavus with an N-terminal deletion (Δ15, removes helix α1); N-terminal truncation designed from the structure to disrupt dimerization; also called α1 single deletion of LepI; α1 single deleted enzyme; source: E. coli, purified as described for LepI
- stoichiometry N [4]: 2 and 4
